pIC50: −log10 of the molar value.
What was measured:
Format in all cases: biochemical
[1] = target: PDE1A (PDE 1A3) (Homo sapiens, UniProt P54750); assay: In vitro HTRF PDE1 inhibition assay (PDE1A); settings: PDE1A (1A3); 100 nM cyclic GMP, calmodulin, 45 minutes at 37° C.
Excerpt: (§1) An exemplary procedure for the in vitro Homogenous Time Resolved Fluorescence (HTRF) assay, which can be used to determine the inhibitory action of compounds of the invention toward PDE1 or its isoforms, follows.
(§2) The HTRF PDE1 assay utilized the HTRF technology, which is based on the competition between unlabeled cyclic nucleotide and cyclic nucleotide labeled with XL665 for the binding to cyclic nucleotide-specific antibody labeled with cryptate. The HTRF signal is thus inversely proportional to the concentration of cyclic nucleotide being measured. Since phosphodiesterases break down cyclic nucleotides the HTRF signal was used to determine PDE activity.
(§3) The Cisbio cGMP HTRF assay kit (Cat no: 62GM2PEC) was utilized. Cyclic GMP was diluted to 200 nM in HTRF assay buffer (1 mM CaCl2, 10 mM MgCl2, 10 mM Tris-HCl, 0.1% BSA, pH7.4). 10 μl of compound or DMSO was diluted in 200 nM cyclic GMP solution and added to wells of a 96 well white plate to give 100 nM cyclic GMP in 1% DMSO final concentration. PDE (1A3, 1B or 1C) was diluted to 2× working concentration in HTRF assay buffer with 4 μg/ml Calmodulin, and 10 μl was added to initiate the reaction. The plate was then incubated for 45 minutes at 37° C. d2-Labelled cyclic GMP and anti-cGMP cryptate were diluted in 50 mM phosphate buffer, 0.8M KF, 1% Triton X100, 0.2% BSA, pH7.0. Following incubation 10 μl d2-cGMP, then 10 μl anti cGMP cryptate were added to each well and the plate was incubated for 45 minutes at rt. The plate was then read on Perkin Elmer Victor at 2 different FRET readings ex/emm 340 nm/665 nm and 340 nm/615 nm.
(§4) Compounds having an IC50 of <1 μM, are denoted as +++. Compounds having an IC50 of 1-10 μM, are denoted as ++. Compounds having an IC50 of 10-100 μM, are denoted as +.

[2] = target: PDE1B (Homo sapiens, UniProt Q01064); assay: In vitro HTRF PDE1 inhibition assay (PDE1B); settings: 100 nM cyclic GMP, calmodulin, 45 minutes at 37° C.
[3] = target: PDE1C (Homo sapiens, UniProt Q14123); assay: In vitro HTRF PDE1 inhibition assay (PDE1C)
Excerpt: as §1, §2, §3, §4

Chain of PDE1C (Q14123 whole entry): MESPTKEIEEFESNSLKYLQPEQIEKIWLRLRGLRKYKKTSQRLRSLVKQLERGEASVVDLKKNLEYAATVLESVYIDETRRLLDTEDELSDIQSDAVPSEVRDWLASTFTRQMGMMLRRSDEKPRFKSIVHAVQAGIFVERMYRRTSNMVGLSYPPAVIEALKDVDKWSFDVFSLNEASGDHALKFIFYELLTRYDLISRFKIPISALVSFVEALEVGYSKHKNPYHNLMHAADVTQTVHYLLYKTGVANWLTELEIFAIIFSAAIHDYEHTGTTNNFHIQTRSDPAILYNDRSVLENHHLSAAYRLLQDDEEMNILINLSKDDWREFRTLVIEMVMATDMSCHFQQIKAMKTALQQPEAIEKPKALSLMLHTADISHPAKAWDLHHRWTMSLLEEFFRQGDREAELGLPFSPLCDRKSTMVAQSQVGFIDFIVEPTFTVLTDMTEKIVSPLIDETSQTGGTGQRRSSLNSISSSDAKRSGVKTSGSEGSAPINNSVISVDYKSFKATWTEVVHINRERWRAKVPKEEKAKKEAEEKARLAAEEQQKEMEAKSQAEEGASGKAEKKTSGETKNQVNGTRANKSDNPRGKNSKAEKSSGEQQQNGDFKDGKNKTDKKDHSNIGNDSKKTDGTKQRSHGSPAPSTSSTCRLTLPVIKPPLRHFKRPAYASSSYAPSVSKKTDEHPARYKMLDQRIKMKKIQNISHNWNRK
Chain of PDE1A (PDE 1A3) (P54750 whole entry, canonical isoform): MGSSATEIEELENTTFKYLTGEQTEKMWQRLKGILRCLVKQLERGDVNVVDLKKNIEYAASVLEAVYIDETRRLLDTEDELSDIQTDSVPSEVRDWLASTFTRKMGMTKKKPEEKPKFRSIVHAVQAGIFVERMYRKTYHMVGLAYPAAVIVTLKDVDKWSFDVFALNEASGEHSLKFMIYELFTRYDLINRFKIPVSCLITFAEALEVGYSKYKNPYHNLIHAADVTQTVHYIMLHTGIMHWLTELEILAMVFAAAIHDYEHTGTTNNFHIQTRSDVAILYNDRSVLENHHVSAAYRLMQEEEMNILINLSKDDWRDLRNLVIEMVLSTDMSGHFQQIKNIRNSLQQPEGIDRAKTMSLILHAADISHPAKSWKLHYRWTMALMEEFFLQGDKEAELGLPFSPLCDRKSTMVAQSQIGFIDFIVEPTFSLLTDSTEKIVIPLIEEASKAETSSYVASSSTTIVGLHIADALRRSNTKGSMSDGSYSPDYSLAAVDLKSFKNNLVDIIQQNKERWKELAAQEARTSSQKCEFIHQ
Chain of PDE1B (Q01064 whole entry): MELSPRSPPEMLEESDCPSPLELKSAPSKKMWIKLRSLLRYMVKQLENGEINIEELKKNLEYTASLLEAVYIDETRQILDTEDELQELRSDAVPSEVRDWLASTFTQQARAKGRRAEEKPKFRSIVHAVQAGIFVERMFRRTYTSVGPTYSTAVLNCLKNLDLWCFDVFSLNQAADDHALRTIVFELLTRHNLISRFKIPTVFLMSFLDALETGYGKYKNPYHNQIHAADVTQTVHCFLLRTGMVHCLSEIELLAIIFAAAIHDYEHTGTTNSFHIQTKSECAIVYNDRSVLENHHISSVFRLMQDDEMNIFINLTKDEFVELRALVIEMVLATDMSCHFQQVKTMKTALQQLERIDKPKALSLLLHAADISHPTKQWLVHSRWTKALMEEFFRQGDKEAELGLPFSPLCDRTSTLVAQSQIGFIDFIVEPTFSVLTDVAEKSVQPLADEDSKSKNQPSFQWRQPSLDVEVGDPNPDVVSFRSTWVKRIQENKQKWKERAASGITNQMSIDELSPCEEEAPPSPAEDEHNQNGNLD

SMILES	IC50 [1]	IC50 [2]	pIC50 [3]
O=c1c2cnc([C@@H]3CCOC3)n2nc2n1CC[C@H](c1ccc(Cl)cc1)N2 [Example 224]	< 1 µM	< 1 µM	5.00 to 6.00
CC(C)n1ncc2c(=O)n3c(nc21)N[C@@H](c1ccc(Cl)cc1)CC3 [Example 27]	< 1 µM	< 1 µM	5.00 to 6.00
O=c1c2cnc(C3CCOCC3)n2nc2n1CC[C@H](c1ccc(Cl)cc1)N2 [Example 69, (2R)-2-(4-Chlorophenyl)-9-(tetrahydro-2H-pyran-4-yl)-1,2,3,4-tetrahydro-6H-imidazo[5,1-f]pyrimido[2,1-c][1,2,4]triazin-6-one]	< 1 µM	< 1 µM	> 6.00
Cc1ncc(CC2CCn3c(nc4c(cnn4C(C)C)c3=O)N2)cn1 (stereo not shown) [Example 72]	–	1 to 10 µM	–
O=c1c2cnn(CC3CC3)c2nc2n1CCC(c1ccc(Cl)cc1)N2 (stereo not shown) [Example 37]	–	< 1 µM	–
Cc1ncc(CC2CCn3c(nc4c(cnn4C4CCCC4)c3=O)N2)cn1 (stereo not shown) [Example 71]	–	1 to 10 µM	–
CC(C)n1ncc2c(=O)n3c(nc21)NC(c1ccc(C#N)cc1)CC3 (stereo not shown) [compound 88]	–	< 1 µM	–
O=c1c2cnc(C3CCCC3)n2nc2n1CC[C@H](c1cncc(Cl)c1)N2 [Example 135]	–	< 1 µM	–
CCn1ncc2c(=O)n3c(nc21)NC(c1ccc(Cl)cc1)CC3 (stereo not shown) [Example 34]	–	< 1 µM	–
CC(C)c1ncc2c(=O)n3c(nn12)NC(c1ccc(Cl)nc1)C3 (stereo not shown) [Example 181, 2-(6-Chloro-3-pyridinyl)-8-isopropyl-2,10-dihydro-3H,5H-diimidazo[2,1-c:5′,1′-f][1,2,4]triazin-5-one]	–	< 1 µM	–
O=c1c2cnc(C3CCOCC3)n2nc2n1CCC1(CCc3ccccc31)N2 (stereo not shown) [Example 177, 9-(Tetrahydro-2H-pyran-4-yl)-2′,3,3′,4-tetrahydro-1H,6H-spiro[imidazo[5,1-f]pyrimido[2,1-c][1,2,4]triazine-2,1′-inden]-6-one]	–	1 to 10 µM	–
COc1cccc([C@@H]2CCn3c(nn4c(C5CCOCC5)ncc4c3=O)N2)c1 [Example 129]	–	< 1 µM	–
Cc1ccc(C2CCn3c(nc4c(cnn4C(C)C)c3=O)N2)cn1 (stereo not shown) [Example 12]	–	1 to 10 µM	–
O=c1c2cnc(C3CCOCC3)n2nc2n1CC[C@@H](c1ccc(Cl)cc1F)N2 [Example 124]	–	1 to 10 µM	–
N#Cc1ccc(C2CCn3c(nc4c(C5CCOCC5)onc4c3=O)N2)cc1 (stereo not shown) [Example 156]	–	10 to 100 µM	–
O=c1c2cnc(C3CC3)n2nc2n1CCC(c1ccc(Cl)cc1)N2 (stereo not shown) [Example 67]	–	< 1 µM	–
CO[C@H]1CC[C@@H](c2ncc3c(=O)n4c(nn32)N[C@@H](c2ccc(Cl)cc2)CC4)CC1 [Example 236]	–	1 to 10 µM	–
O=c1c2cnc(C(F)(F)F)n2nc2n1C[C@H](c1ccc(Cl)cc1)N2 [Example 251, (2S)-2-(4-Chlorophenyl)-8-(trifluoromethyl)-2,10-dihydro-3H,5H-diimidazo[2,1-c:5′,1′-f][1,2,4]triazin-5-one]	–	1 to 10 µM	–
CCC(CC)n1ncc2c(=O)n3c(nc21)NC(c1ccc(Cl)cc1)CC3 (stereo not shown) [Example 36]	–	< 1 µM	–
O=c1c2noc(C3CCOCC3)c2nc2n1CC[C@H](c1ccc(Cl)cc1)N2 [Example 155]	–	1 to 10 µM	–
CC(C)n1ncc2c(=O)n3c(nc21)NC(c1ccc(C#N)cc1)C3 (stereo not shown) [compound 87]	–	< 1 µM	–
O=c1c2cnn(C3CCC3)c2nc2n1CCC(c1ccc(Cl)cc1)N2 (stereo not shown) [Example 44]	–	< 1 µM	–
CC(C)c1ncc2c(=O)n3c(nn12)N[C@@H](c1ccc(O)cc1)C3 [Example 261, (2S)-2-(4-Hydroxyphenyl)-8-isopropyl-2,10-dihydro-3H,5H-diimidazo[2,1-c:5′,1′-f][1,2,4]triazin-5-one]	–	< 1 µM	–
O=c1c2cnc(C3CC=CCC3)n2nc2n1CC[C@H](c1ccc(Cl)cc1)N2 (stereo partly shown) [Example 243]	–	< 1 µM	–

More lines, now with the values ahead:

IC50 [1]	IC50 [2]	pIC50 [3]	SMILES
< 1 µM	< 1 µM	> 6.00	O=c1c2cnc(C3CCC3)n2nc2n1CC[C@H](c1ccc(Cl)cc1)N2 [Example 65]
< 1 µM	< 1 µM	5.00 to 6.00	COC1(c2ncc3c(=O)n4c(nn23)N[C@@H](c2ccc(Cl)cc2)CC4)CC1 [Example 239]
< 1 µM	< 1 µM	> 6.00	CC[C@@H](C)c1ncc2c(=O)n3c(nn12)N[C@@H](c1ccc(Cl)cc1)CC3 [Example 226]
–	< 1 µM	–	CC(C)n1ncc2c(=O)n3c(nc21)NC(c1cccc(Cl)c1)CC3 (stereo not shown) [Example 30]
–	1 to 10 µM	–	Cc1cnc(CC2CCn3c(nc4c(cnn4C4CCCC4)c3=O)N2)nc1 (stereo not shown) [Example 70, 1-Cyclopentyl-8-[(5-methyl-2-pyrimidinyl)methyl]-6,7,8,10-tetrahydropyrazolo[3,4-d]pyrimido[1,2-a]pyrimidin-4(1H)-one]
–	< 1 µM	–	CC(C)Cc1ncc2c(=O)n3c(nn12)N[C@@H](c1ccc(Cl)cc1)CC3 [Example 166]
–	1 to 10 µM	–	O=c1c2cnn(C3CCCC3)c2nc2n1CC[C@@H](c1ccc(Cl)cc1)N2 [Example 41]
–	< 1 µM	–	O=c1c2cnn(C3CCOCC3)c2nc2n1C[C@H](c1ccc(Cl)cc1)N2 [Example 148]
–	1 to 10 µM	–	O=c1c2cnc(C(F)(F)F)n2nc2n1CC[C@H](c1ccc(Cl)cc1)N2 [Example 246]
–	< 1 µM	–	CC(C)c1ncc2c(=O)n3c(nn12)NC(c1ccc(C#N)cc1)CC3 (stereo not shown) [Example 91]
–	1 to 10 µM	–	O=c1c2cnc(CO)n2nc2n1CC[C@H](c1ccc(Cl)cc1)N2 [Example 237]
–	< 1 µM	–	CC(C)c1ncc2c(=O)n3c(nn12)NC(c1ccc(C(F)(F)F)cc1)CC3 (stereo not shown) [Example 50]
–	< 1 µM	–	CC(C)c1nccc2c(=O)n3c(nc12)NC(c1ccc(Cl)cc1)CC3 (stereo not shown) [Example 173]
–	< 1 µM	–	O=c1c2cnn(C3CCOCC3)c2nc2n1CCC(c1ccc(Cl)cc1)N2 (stereo not shown) [Example 43]
–	1 to 10 µM	–	Cc1cnc(CC2CCn3c(nc4c(cnn4C(C)C)c3=O)N2)nc1 (stereo not shown) [Example 73]
–	< 1 µM	–	O=c1c2cnc(C3CCCC3)n2nc2n1CC[C@@H](c1cncc(Cl)c1)N2 [Example 134]
–	< 1 µM	–	O=c1c2cnc(C3CCCC3)n2nc2n1CCC(c1ccc(Cl)cc1)N2 (stereo not shown) [Example 60]

IC50 [1]	IC50 [2]	pIC50 [3]	SMILES
–	1 to 10 µM	–	CC(C)c1onc2c(=O)n3c(nc12)N[C@@H](c1ccc(Cl)cc1)CC3 [Example 152, (6R)-6-(4-Chlorophenyl)-3-isopropyl-4,6,7,8-tetrahydro-10H-[1,2]oxazolo[4,3-d]pyrimido[1,2-a]pyrimidin-10-one]
–	< 1 µM	–	O=c1c2cnc(C3CCC3)n2nc2n1CCC(c1ccc(Cl)cc1)N2 (stereo not shown) [Example 63]
–	1 to 10 µM	–	O=c1c2cnn(C3CCC(F)(F)CC3)c2nc2n1CCC(c1ccc(Cl)cc1)N2 (stereo not shown) [Example 39]
–	< 1 µM	–	O=c1c2cnn(C3CCOCC3)c2nc2n1CC(c1ccc(Cl)cc1)N2 (stereo not shown) [Example 75]
–	< 1 µM	–	CC(C)n1ncc2c(=O)n3c(nc21)N[C@H](c1ccc(Cl)cc1)C3 [Example 143]
–	< 1 µM	–	O=C1c2cnc([C@@H]3CCOC3)n2NC2=N[C@@H](c3ccc(Cl)cc3)CN12 [Example 185, (2S)-2-(4-Chlorophenyl)-8-[(3S)-tetrahydro-3-furanyl]-2,10-dihydro-3H,5H-diimidazo[2,1-c:5′,1′-f][1,2,4]triazin-5-one]
–	< 1 µM	–	O=c1c2cnn(C3CCCC3)c2nc2n1CC[C@H](c1ccc(Cl)cc1)N2 [Example 40]
–	1 to 10 µM	–	Cc1cc(C2CCn3c(nc4c(cnn4C(C)C)c3=O)N2)ccn1 (stereo not shown) [Example 26]
–	< 1 µM	–	CCCn1ncc2c(=O)n3c(nc21)NC(c1ccc(Cl)cc1)CC3 (stereo not shown) [Example 35]
–	< 1 µM	–	CC(C)n1ncc2c(=O)n3c(nc21)NC(c1ccccc1Cl)CC3 (stereo not shown) [Example 31]
–	10 to 100 µM	–	COc1cccc(C2CCn3c(nc4c(cnn4C4CCCC4)c3=O)N2)c1 (stereo not shown) [Example 5]
–	10 to 100 µM	–	O=c1c2noc(C3CCOCC3)c2nc2n1CCC(c1cccc(Cl)c1)N2 (stereo not shown) [Example 159]
–	< 1 µM	–	COc1cc(C2CCn3c(nc4c(cnn4C(C)C)c3=O)N2)ccc1F (stereo not shown) [Example 11]
–	< 1 µM	–	CC1(c2ncc3c(=O)n4c(nn23)N[C@@H](c2ccc(Cl)cc2)CC4)CCCC1 [Example 245]
–	< 1 µM	–	O=c1c2cnc(C3CCOCC3)n2nc2n1CC[C@H](c1ccc(Cl)cc1F)N2 [Example 125]
–	< 1 µM	–	CC(C)c1ncc2c(=O)n3c(nn12)NC(c1ccc(OCF)cc1)C3 (stereo not shown) [Example 262, 2-[4-(Fluoromethoxy)phenyl]-8-isopropyl-2,10-dihydro-3H,5H-diimidazo[2,1-c:5′,1′-f][1,2,4]triazin-5-one]
–	1 to 10 µM	–	O=c1c2cnc(C3CCOCC3)n2nc2n1CC[C@@H](c1ccc(Cl)cc1C(F)(F)F)N2 [Example 123]
